Test results from patent US20020165141A1, “Methods for promoting dendritic cell proliferation or differentiation” (priority 2000, published 2002).
Entries after “also recorded” stand apart in the source; their conditions may differ.

How the values were obtained:
[1] = Tests of AII fragments for effectiveness (test not described); details: test not specified
dendritic cells = experiment: Effect of angiotensin peptides on dendritic cell proliferation (cells per well by phase contrast microscopy); type: cell-based, C57B1/6 mice; details: cytokine(s) added to the cultures alone
Description: Isolation of Dendritic Cells from Mice Treated with flt3 Ligand: Spleens were enriched in vivo with dendritic cells by stimulation with flt3 ligand (Marakovsky et al, 1996). C57B1/6 mice were subcutaneously injected with 4×10^6 flt3 ligand-secreting B16 melanoma cells prepared by transfection of murine flt3 ligand cDNA with the retroviral vector MFG. Spleen cells were harvested after the tumors reached 2-3 cm in diameter, at which time the spleens were 5-10 fold enlarged over those of untreated mice.
The spleens were harvested and the cells were dispersed through sterile screens. A single cell suspension of whole splenocytes was resuspended in a high-density BSA solution (1 ml/spleen) containing 10.6 g BSA, 18.6 ml PBS, 2.9 ml 1 N NaOH, and 6.5 ml water. After overlaying 2 ml of ice-cold RPMI, the splenocyte/BSA solution was centrifuged for 15 minutes at 9500 g. About 5×10^7 dendritic cells/spleen were recovered from the interface and resuspended in RPMI. […]
Culture of Dendritic Cells: Twenty four hours after isolation, these cells were counted and placed in culture in RPMI 1640 supplemented with 10% fetal calf serum, 2 mM 1 glutamine, 1 mM sodium pyruvate, 50 μM mercaptoethanol, 100 U/ml penicillin and 100 μg/ml streptomycin at a concentration of 1×10^3 cells/well of a 96 well plate. One third of the wells were counted at random to ensure even distribution of the cells to the wells. […]

Row | Molecule | effectiveness [1] | number of cells per well / cellular proliferation, cytokine without angiotensin peptide (dendritic cells)
1 | Tyr-Ile-His-Pro-Phe (YIHPF) [AII(4-8)] | not to be effective; also recorded: ineffective | –
2 | His-Pro-Phe (HPF) [AII(6-8)] | not to be effective | –
3 | IL-6: murine recombinant Interleukin 6 (IL-6), 25 ng/ml (protein, UniProt P08505 25-211, looked up) Interleukin-6: FPTSQVRRGDFTEDTTPNRPVYTTSQVGGLITHVLWEIVEMRKELCNGNSDCMNNDDALAENNLKLPEIQRNDGCYQTGYNQEICLLKISSGLLEYHSYLEYMKNNLKDNKKDKARVLQRDTETLIHIFNQEVKDLHKIVLPTPISNALLTDKLESQKEWLRTKTIQFILKSLEEFLKVTLRSTRQT | – | did not affect the number of cells per well
4 | GM-CSF: murine recombinant granulocyte macrophage-colony stimulating factor, 50 ng/ml (protein, UniProt P01587 18-141, looked up) Granulocyte-macrophage …: APTRSPITVTRPWKHVEAIKEALNLLDDMPVTLNEEVEVVSNEFSFKKLTCVQTRLKIFEQGLRGNFTKLKGALNMTASYYQTYCPPTPETDCETQVTTYADFIDSLKTFLTDIPFECKKPGQK | – | did not increase cellular proliferation
